Values quoted from earlier work as cited in patent US20170368135A1, “HERBAL DRUG COMPOSITION CONTAINING PROBIOTIC AND OPTIONALLY PREBIOTIC AND/OR ACTIVE PHARMACEUTICAL INGREDIENT” (VITALIVA, LLC, priority 2016, published 2017).

What was measured:
alcoholic liver disease = conditions: in vivo

In the case of `COc1cc(/C=C/C(=O)CC(=O)/C=C/c2ccc(O)c(OC)c2)ccc1O` [Curcumin], the “endotoxin-mediated activation of NF-κB” value (NF-κB in Kupffer cells) is listed as “phsyciological changes induced by alcohol. Curcumin blocks”, the “expression of cytokines, chemokines, COX-2, and iNOS” value (NF-κB in Kupffer cells; Kupffer cells) is listed as “endotoxin-mediated activation of NF-κB and suppresses the expression” and the “physiological changes induced by alcohol” value (alcoholic liver disease) is listed as “dietary spice turmeric, shows that curcimin administration prevented”.
